{"source": "patent US7838515B2", "about": "“Formulations of quaternary ammonium neuromuscular blocking agents” (Lyotropic Therapeutics, Inc., priority 2005, dated 2010)", "key": {"[1]": {"conditions": "cited from earlier work"}, "[2]": {"assay": "HPLC stability of vecuronium bromide solutions with anionic additives (Example 1)", "format": "physicochemical", "experimental": "HPLC System was a Shimadzu VP Series that consists of the following components: SPD-M10A—Diode Array Detector; SIL-10AD—Autosampler; LC-10AT—Pump; SCL-10A—Controller; and Shimadzu EZ Start Version 7.2 SP 1 Revision B—Software.\nIn this Example a number of anionic compounds, with various pKa's and carbon numbers, were compared for their ability to stabilize vecuronium in solution.\nThe following chart gives the compositions that were prepared and examined by HPLC for stability over time. Each sample contained approximately 1 mg/mL vecuronium bromide. […] All numerical entries in the chart are actual recorded weights in grams: […]"}, "[3]": {"assay": "Shelf-life of vecuronium bromide control solutions (HPLC, 15% potency lost)", "format": "physicochemical", "conditions": "for shelf-life of solution: 1 mg/ml in water, point at which 15% of potency is lost", "description": "In the Examples below, where HPLC assay results for vecuronium are reported, the following gives the parameters of the HPLC measurement. HPLC System was a Shimadzu VP Series that consists of the following components: SPD-M10A—Diode Array Detector; SIL-10AD—Autosampler; LC-10AT—Pump; SCL-10A—Controller; and Shimadzu EZ Start Version 7.2 SP 1 Revision B—Software. Chromatographic Parameters: Mobile Phase—60% Acetonitrile, 25% Methanol, 15% 0.1M TMAH (pH=6.5); Column—25 cm×4.6 mm Phenomenex Luna C18 5 μm; Wavelength—210 nm; Injection Volume—5 μL; Flow Rate—1.0 mL/min; Standard Preparation—1 mg/mL in 0.001N HCl/Methanol; and Sample Preparation—1 mg/mL—Undiluted.\nIn the case of vecuronium at pH 6 and 25° C., the shelf-life of just under 1 week was recorded for both a maleate-TRIS buffer and an HCl-acidified vecuronium solution."}, "twitch response": {"test_system": "twitch response", "conditions": "0.08 to 0.1 mg/Kg, balanced anesthesia; cited from earlier work"}, "[4]": {"assay": "Cubic phase-water partitioning of vecuronium (HPLC)", "format": "physicochemical", "description": "It is this hydrophobic milieu that is central to the invention, in limiting the contact between water and the labile group(s) of the drug."}, "[5]": {"conditions": "25° C. and 40° C. data of Example 1"}, "[6]": {"conditions": "with a charged surfactant (sodium glycocholate)"}}, "note": "Read-outs that look alike come from different tables or passages of the source."}
{"compound": "C[C@H](CCC(=O)NCC(=O)O)[C@H]1CC[C@H]2[C@@H]3[C@H](O)C[C@@H]4C[C@H](O)CC[C@]4(C)[C@H]3C[C@H](O)[C@]12C", "note": "[glycocholic, glycocholic acid]", "values": [{"measurement": "pKa", "setting": "[1]", "value": "approximately 3.5"}, {"measurement": "pKa", "setting": "[1]; listed as glycocholate", "value": 3.5}]}
{"compound": "CC(=O)N[C@@H](Cc1c[nH]c2ccccc12)C(=O)O", "note": "[N-acetyltryptophan]", "values": [{"measurement": "effect of the additive on vecuronium solution stability (in words)", "setting": "[2]; [5]", "value": "performed very poorly at the higher temperature"}, {"measurement": "pKa", "setting": "[1]", "value": 3.4}]}
{"compound": "O=C(O)/C=C\\C(=O)O", "note": "[maleic]", "values": [{"measurement": "pKa", "setting": "[1]", "value": 3.9}]}
{"compound": "O=C1NS(=O)(=O)c2ccccc21", "note": "[saccharin]", "values": [{"measurement": "effect of the additive on vecuronium solution stability (in words)", "setting": "[2]", "value": "most stable solutions"}, {"measurement": "pKa", "setting": "[1]", "value": 2.0}]}
{"compound": "CCCCCCCCCCCCCC(=O)OCC(COP(=O)(O)OCC(O)CO)OC(=O)CCCCCCCCCCCCC", "note": "(stereo not drawn) [DMPG, dimyristoylphosphatidylglycerol]", "values": [{"measurement": "pKa", "setting": "[1]", "value": "approx. 3.0"}, {"measurement": "pKa", "setting": "[1]; listed as Dimyristoyl phosphatidylglycerol", "value": "about 3.0"}]}
{"compound": "CCCCCCCC(=O)O", "note": "[octanoic, Octanoic acid]", "values": [{"measurement": "effect of the additive on vecuronium solution stability (in words)", "setting": "[2]; [5]", "value": "equally bad"}]}
{"compound": "O=S(=O)(O)c1ccccc1", "note": "[benzenesulfonic, benzenesulfonic acid]", "values": [{"measurement": "effect of the additive on vecuronium solution stability (in words)", "setting": "[2]", "value": "most stable solutions"}]}
{"compound": "Cc1ccc(S(=O)(=O)O)cc1", "note": "[toluenesulfonic, toluenesulfonic acid]", "values": [{"measurement": "effect of the additive on vecuronium solution stability (in words)", "setting": "[2]", "value": "most stable solutions"}]}
{"compound": "C[C@H](CCC(=O)O)[C@H]1CC[C@H]2[C@@H]3CC[C@@H]4C[C@H](O)CC[C@]4(C)[C@H]3C[C@H](O)[C@]12C", "note": "[deoxycholic acid]", "values": [{"measurement": "pKa", "setting": "[1]", "value": "about 5.7"}]}
{"compound": "O=C(O)c1cc(O)ccc1O", "note": "[gentisic, gentisic acid]", "values": [{"measurement": "effect of the additive on vecuronium solution stability (in words)", "setting": "[2]", "value": "most stable solutions"}]}
{"compound": "CC(=O)O[C@H]1C[C@@H]2CC[C@@H]3[C@H](CC[C@@]4(C)[C@H]3C[C@H]([N+]3(C)CCCCC3)[C@@H]4OC(C)=O)[C@@]2(C)C[C@@H]1N1CCCCC1", "note": "[Vecuronium, vecuronium bromide]", "values": [{"measurement": "shelf-life of solution", "setting": "[3]; pH 6.0, 4° C.", "value": 5, "unit": "weeks"}, {"measurement": "shelf-life of solution", "setting": "[3]; pH 6.0, 25° C.", "value": 1, "unit": "week"}, {"measurement": "time until potency is reduced to 85% of initial", "setting": "[3]; control solution at same pH (5.2) and temperature (25° C.)", "value": "about 2 weeks"}, {"measurement": "shelf-life", "setting": "[3]; pH 6, 25° C., both maleate-TRIS buffer and HCl-acidified solution", "value": "under 1 week"}, {"measurement": "time to first depression of twitch response", "setting": "twitch response", "value": "approximately 1 minute"}, {"measurement": "KQW (cubic-water partition coefficient)", "setting": "[4]; [6]", "value": "10,000"}, {"measurement": "concentration in the aqueous phase", "setting": "[4]; [6]", "value": 1, "unit": "µg/mL"}, {"measurement": "concentration in the cubic phase", "setting": "[4]; [6]", "value": 10600, "unit": "µg/mL"}, {"measurement": "log KQW", "setting": "[4]; [6]", "value": "+4"}, {"measurement": "KQW (cubic-water partition coefficient)", "setting": "[4]; without a charged surfactant", "value": "1,667"}, {"measurement": "concentration in the aqueous phase", "setting": "[4]; without a charged surfactant", "value": 6, "unit": "µg/mL"}, {"measurement": "concentration in the cubic phase", "setting": "[4]; without a charged surfactant", "value": 10000, "unit": "µg/mL"}, {"measurement": "log KQW", "setting": "[4]; without a charged surfactant", "value": "+3.2"}]}
